Measured values published in EP0893123A1, “AGENT FOR USE IN THE PREVENTION AND TREATMENT OF DISORDERS ASSOCIATED WITH VARIOUS TYPES OF AGEING” (Peganov, Eduard Maximovich, priority 1995, dated 1997).

Tests used:
[1] = Body weight of old rats during 21 days of drinking water containing D2O; assay type: in vivo; settings: for weight of the animals: experimental group
Description: (§1) The experiments were performed on 20 old (29-30 months) outbred female rats. During 21 days control group (9 rats) received usual water as free drinking, and experimental group (11 rats) drank water, containing ? 2O. Control weighing and visual observation of their behaviour was carried out. Then for 6 days both groups received usual water "to wash out " heavy water from the body in order to put both groups in equal conditions in the subsequent experiments. After that the experiment was carried out as follows: each day one control or one experimental animal was narcotised by urethane (1,3 g/kg) and decapitated. The hippocampal slices then were prepared, which were transferred to the special thermostatic chamber, where they were incubated during the experiment. The chamber was perfused at the rate of 2 ml/minute with physiological solution (content in mM: NaCl-124; KCl-5,0; CaCl2-2,5; MgSO4- 2,4; KH2PO4-1,25; NaHCO3-26; glucose-15; pH―7,4-7,5;), saturated with carbogen (95 % O2 and 5 % CO2). The slices were stored for 20-30 minutes at room temperature, then temperature was increased up to 28-29°C. Electrical activity was recorded in 1-1,5 hour after preparation of slices. The recording glass microelectrodes, filled with 2M solution of sodium citrate (electrical resistance 5-25 Mo ? ) were inserted into the layer of pyramidal neurones. Electrical stimulation of Shaffer's collaterals was made through double-barrel glass microelectrodes, filled with physiological solution, with the resistance up to 2 Mo ? , by the rectangular pulses (amplitude up to 40 V, duration 0.2 msec, frequency 0,2-0,3 Hz). Data processing was made on the computer (" Electronics D3-28 ").

[2] = tested on: staphylococcus toxin; set-up: species or system outbred white rats; settings: rat, in vivo
[3] = tested on: pneumococcus; assay: Bacterial shock model (intraperitoneal pneumococcus culture, minimal lethal dose)
[4] = tested on: pseudomonas aeruginosa strain N 450; assay: Model of sepsis (intramuscular pseudomonas aeruginosa culture in 10% CaCl2); settings: D2O consumed 2 days before and 9 days after infection, fig. 8
[5] = tested on: hippocampus of old rats; assay: Long term potentiation (LTP, model of ageing): electrophysiology of hippocampal slices from treated old rats; assay type: in vivo; set-up: PS amplitude on the average: unit not given here
Excerpt: The following examples illustrate the invention: Example 1. Long term potentiation (LTP, model of ageing) The adequacy of the choice of the model is due the following factors: • LTP phenomenon relates to function of memory, being an initial stage in a chain of processes, resulting in formation of traces of long-term memory, since the impairment of LTP is accompanied on the behavioral level by impairment of memory, first of all on current events (Landfield . W., Lynch G., " Impaired monosynaptic potentiation of in vitro hippocmpal slices aged memory-deficient rats., J. Gerontology, 1977, v.32, 5, pp. 523-533; Landfield P.W., Pilter T.A. Applegate M. D., " The aged hippocampus: A model system for studies on mechanisms of behavioral plasticity and brain ageing) The Hippocampus, 1986, v.3, pp. 323-367). • the decrease of the content of various protein structures in old animals is reported (Monaghan D.T.et al is observed., " Age dependent loss of NMDA receptors in rodent brains ", Soc. Neurosci. Abstr.,1988, v.14, p.486; Angeluoci L., Imperato A.. " Age-dependent loss of muscarinic receptors and cholinergic impairment in the rats brain ", Neuroscience Letters, Suppl. 39, 1990, p. 8), • the degree of dementia was reported to correlate with decrease of the membrane surface density of N-methyl-D-aspartate receptors, responsible for LTP, in patients with SDAT (Represa A., et al., " Is senile dementia of the Alzheimer type associated with hippocampal plasticity", Brain research, 1988, v.457, 355-359). the decrease of the rate of overall protein synthesis and, as a consequence, deficits of various proteins and products of non-protein synthesis is characteristic not only for a brain, but also for all organs and systems and are the mostly ascertained facts, concerning ageing, and recognised markers of ageing (Markides S.C. " Protein synthesis and degradation during aging and senescence ", Biol. Rev., 19836 v.58, 343-422; Rattan S. I., " Ageing and discase: proteins as the molecular link ", Perspect. Biol and Med., 1991, v.34, 4. Pp 526-533).
as §1
Results . On the average in control group weight of the animals was : at the 1-st day 365 ± 37 g, at 21-th day 380 ± 38 g. […]

In the case of deuterium oxide [heavy water], the “weight of the animals” value ([1]; at 21-th day of drinking water containing D2O) is reported as 375 ± 34 g, the “weight of the animals” value ([1]; at the first day, old (29-30 months) female rats) is reported as 373 ± 25 g and the “differences in animals weight and in the weight increment between the two groups” value ([1]; experimental vs control group, 21 days) is reported as “No statistically significant differences”. For the same substance, the survival of animals [2] was 40%, the time of dying [2] was “delay of the time of dying” and the “experimental animals still alive” value ([3]; in 48 hours, when 100% of control animals had died, fig. 5) was 50%. For the same substance, the “dying delayed with respect to control animals” value ([3]; pneumococcus culture, 10 mice, D2O drunk 2-4 days before, fig. 5) was “about 24 hours”, the dying delayed ([3]; with additional treatment during shock to maintain blood circulation, fig. 6) was 48 h and the “delay of lethal outcomes” value [4] was 3 days. For the same substance, the decrease of lethality ([4]; vs control) was 3 times, the “LTP occurred (share of rats)” value ([5]; 7 of 10 old rats of experimental group) was 70% and the “Focal evoked potentials (FEP) with preserved pre- and postsynaptic components registered (share of HSs)” value ([5]; 12 of 18 experimental hippocampal slices) was 67%. For the same substance, the “spontaneous pulse activity of pyramidal neurons of field CA1 detected (share of HSs)” value ([5]; 13 of 18 experimental hippocampal slices, 21 days D2O, 6 days wash out) was 72%, the “LTP occurred (number of HSs)” value ([5]; LTP = PS amplitude after tetanization increased more than by 25 %, sustained more than 30 minutes) was 10 of 18 and the “increment of the potentiated response” value ([5]; after second tetanization, example of figure 4) was 730%. The “PS amplitude increased on the average (LTP)” value ([5]; after tetanization, experimental group) was 151 % + 26, the “effect of repeated tetanization” value ([5]; all cases, experimental group) was “further increase of the potentiated response” and the “persistence of restored LTP after cancellation of treatment” value ([5]; last three treated animals tested on 25-th, 26-th and 27-th days after D2O cancellation) was “persisted long (about month) after cancellation of treatment”. For the same substance, the “PS amplitude on the average” value ([5]; population spikes in experimental HSs) was 217 ± 55 and the “average increase of amplitude PS (frequency potentiation)” value ([5]; stimulation by frequency of 1 Hz) was 55±31%.
